Test [1] relates to S. pneumoniae ATCC6301. Put plainly: Mouse survival model (lung infection). In kind it is in vivo. To be noted: CD-1 mice. On the procedure:
Anaesthetised female CD-1 mice (18-22 g) were inoculated intranasally with approximately 10^6 cfus of S. pneumoniae ATCC6301 prepared from a fresh overnight culture by placing 50 μl of inoculum on the nares and allowing the mice to inhale. Compounds are administered as indicated at 24, 48 and 72 hours post inoculation and the mice monitored for survival for seven or nine days after infection. […] Similarly, when Compound 17 was dosed IV at 30 mg/kg 90% of mice survived at day seven.

Test [2] deals with S. aureus (ATCC 29213). Nature of the test: Bacterial assay: MIC against S. aureus. In kind it is cell-based, Staphylococcus aureus. The following applies: Staphylococcus aureus, ATCC29213, read-out: minimal inhibitory concentration (MIC).
Test [3] concerns S. pyogenes (ATCC 51339). Nature of the test: Bacterial assay: MIC against S. pyogenes. The test is classed as cell-based, Streptococcus pyogenes. The following applies: Streptococcus pyogenes, ATCC51339, read-out: minimal inhibitory concentration (MIC).
For test [4], the system named is H. influenzae (ATCC 49247). Nature of the test: Bacterial assay: MIC against H. influenzae. In kind it is cell-based. To be noted: Haemophilus influenzae, ATCC49247; H. influenzae ATCC 49247; read-out: minimal inhibitory concentration (MIC).
Test [5] concerns S. aureus ATCC29213. Nature of the test: Rat thigh infection model. In kind it is in vivo. The following applies: neutropenic Sprague-Dawley rats, IV ≦40 mg/kg. The procedure:
The thighs of Sprague-Dawley rats (250-275 g), rendered neutropenic by the intraperitoneal administration of cyclophosphamide (75 mg/kg on days −4 and −1), were inoculated with approximately 1×10^7 cfus of S. aureus ATCC29213.
Compounds were administered as indicated 2 hours later and the cfus enumerated at various times post dosing by harvesting the thighs, homogenising in PBS on ice and plating serial dilutions onto CLED agar plates for growth at 37° C. and colony counting.

Test [6] has as its system S. pneumoniae ATCC6301. Nature of the test: Mouse lung infection model (Gram positive). In kind it is in vivo. The following applies: CD-1 mice, IV 30 mg/kg, cfus at 48 hours post inoculation. On the procedure: Anaesthetised female CD-1 mice (18-22 g) were inoculated intranasally with approximately 10^6 cfus of S. pneumoniae ATCC6301 prepared from a fresh overnight culture by placing 50 μl of inoculum on the nares and allowing the mice to inhale. Compounds were administered as indicated at 24 hours post inoculation and the cfus enumerated at 48 hours post inoculation by harvesting the lungs, homogenising in PBS on ice and plating serial dilutions onto TSA+5% blood plates for growth overnight at 37° C. and colony counting.

For the compound `CC(=O)NC[C@H]1CN(c2ccc(N3CCOCC3)c(F)c2)C(=O)O1` [Linezolid, reference compound], the survival outcome in test [1] (10 mg/kg) was “dead by day six”.
Consider `CCNC(=O)Nc1nc2cc(-c3cnc(C(C)O)nc3)cc(-c3ccccn3)c2s1` (centres unmarked) [Compound 17, 1-ethyl-3-[5-[2-(1-hydroxyethyl)pyrimidin-5-yl]-7-(2-pyridyl)-1,3-benzothiazol-2-yl]urea], for which the results for the MIC in test [2], in test [3] and in test [4] were at most 1 µg/mL, at most 1 µg/mL and at most 2 µg/mL, respectively. In test [1] (IV 30 mg/kg, at day seven), this compound yielded a mice survived of 90%.
As to `CCNC(=O)Nc1nc2cc(-c3cnc(C(C)(C)O)nc3)cc(-c3cc(CN4CCOCC4)ccn3)c2s1` [Compound 28, 1-ethyl-3-[5-[2-(1-hydroxy-1-methyl-ethyl)pyrimidin-5-yl]-7-[4-(morpholinomethyl)-2-pyridyl]-1,3-benzothiazol-2-yl]urea], the MIC in test [2] was at most 1 µg/mL; in test [3] it was at most 1 µg/mL; in test [4] it was at most 2 µg/mL.
For the compound `CCNC(=O)Nc1nc2cc(-c3cnc(C(C)(C)O)nc3)cc(-c3ccccn3)c2s1` [Compound 1, 1-ethyl-3-[5-[2-(1-hydroxy-1-methyl-ethyl)pyrimidin-5-yl]-7-(2-pyridyl)-1,3-benzothiazol-2-yl]urea], the MIC in test [2] was at most 1 µg/mL; in test [3] it was at most 1 µg/mL; in test [4], at most 2 µg/mL. Also, the “log drop in colony forming units compared to the control” value in test [5] and in test [6] was at least 3 log throughout. The mice surviving in test [1] (IV 10 mg/kg, at seven or nine days) worked out at 80%.
On to `CCNC(=O)Nc1nc2cc(-c3cnc(C4(O)CCOCC4)nc3)cc(-c3cc(CN4CCOCC4)ccn3)c2s1` [Compound 125, 1-ethyl-3-[5-[2-(4-hydroxytetrahydropyran-4-yl)pyrimidin-5-yl]-7-[4-(morpholinomethyl)-2-pyridyl]-1,3-benzothiazol-2-yl]urea], for which the figures for the MIC in test [2], in test [3] and in test [4] were at most 1 µg/mL, at most 1 µg/mL and at most 2 µg/mL, respectively.
`CCNC(=O)Nc1nc2cc(-c3cnc(C(C)(C)O)nc3)cc(-c3cc(OCCN4CCOCC4)ccn3)c2s1` [Compound 32, 1-ethyl-3-[5-[2-(1-hydroxy-1-methyl-ethyl)pyrimidin-5-yl]-7-[4-(2-morpholinoethoxy)-2-pyridyl]-1,3-benzothiazol-2-yl]urea]: the MIC in test [2] is at most 1 µg/mL; in test [3], at most 1 µg/mL; in test [4], at most 2 µg/mL.
Turning to `CCNC(=O)Nc1nc2cc(-c3cnc(C(O)CO)nc3)cc(-c3ccccn3)c2s1` (centres unmarked) [Compound 40, 1-[5-[2-(1,2-dihydroxyethyl)pyrimidin-5-yl]-7-(2-pyridyl)-1,3-benzothiazol-2-yl]-3-ethyl-urea], the MIC in test [2] was at most 1 µg/mL; in test [3] it was at most 1 µg/mL; in test [4], at most 2 µg/mL.
Consider `CCNC(=O)Nc1nc2cc(-c3cnc(C(C)O)nc3)cc(-c3cc(CN4C[C@@H](C)O[C@@H](C)C4)ccn3)c2s1` (stereo partly drawn) [Compound 69, 1-[7-[4-[[(2R,6S)-2,6-dimethylmorpholin-4-yl]methyl]-2-pyridyl]-5-[2-(1-hydroxyethyl)pyrimidin-5-yl]-1,3-benzothiazol-2-yl]-3-ethyl-urea], for which the MIC is at most 1 µg/mL in test [2], at most 1 µg/mL in test [3] and at most 2 µg/mL in test [4].
Consider `CCNC(=O)Nc1nc2cc(-c3cnc(C(C)(C)O)nc3)cc(-c3cc(CN4CC[C@H](F)C4)ccn3)c2s1` [Compound 35, 1-ethyl-3-[7-[4-[[(3S)-3-fluoropyrrolidin-1-yl]methyl]-2-pyridyl]-5-[2-(1-hydroxy-1-methyl-ethyl)pyrimidin-5-yl]-1,3-benzothiazol-2-yl]urea], for which the values for the MIC in test [2], in test [3] and in test [4] were at most 1 µg/mL, at most 1 µg/mL and at most 2 µg/mL, respectively.
`CCNC(=O)Nc1nc2cc(-c3cnc(C4(O)COC4)nc3)cc(-c3cc(CN4CCOCC4)ccn3)c2s1` [Compound 154, 1-ethyl-3-[5-[2-(3-hydroxyoxetan-3-yl)pyrimidin-5-yl]-7-[4-(morpholinomethyl)-2-pyridyl]-1,3-benzothiazol-2-yl]urea]: the MIC in test [2] is at most 1 µg/mL; in test [3] it was at most 1 µg/mL; in test [4] it was at most 2 µg/mL.
Consider `CCNC(=O)Nc1nc2cc(-c3cnc([C@@H](C)O)nc3)cc(-c3cc(CN4CCOCC4)ccn3)c2s1` [Compound 121, 1-ethyl-3-[5-[2-[(1R)-1-hydroxyethyl]pyrimidin-5-yl]-7-[4-(morpholinomethyl)-2-pyridyl]-1,3-benzothiazol-2-yl]urea], for which the results for the MIC in test [2], in test [3] and in test [4] were at most 1 µg/mL, at most 1 µg/mL and at most 2 µg/mL, respectively.
Regarding `CCNC(=O)Nc1nc2cc(-c3cnc(C(C)O)nc3)cc(-c3cc(CSC)ccn3)c2s1` (centres unmarked) [Compound 15, 1-ethyl-3-[5-[2-(1-hydroxyethyl)pyrimidin-5-yl]-7-[4-(methylsulfanylmethyl)-2-pyridyl]-1,3-benzothiazol-2-yl]urea], the MIC in test [2] is at most 1 µg/mL; in test [3], at most 1 µg/mL; in test [4], at most 2 µg/mL.

For the origin of these results see patent US20170260178A1 (SPERO GYRASE, INC., priority 2012, published 2017).
